Source: patent US20260159525A1, “TRICYCLIC HETEROCYCLES” (Merck Patent GmbH, priority 2021, published 2026)

Test system: YAP-TEAD interaction
Assay: SK-HEP-1 reporter assay (8x TEAD responsive elements driving NanoLuc luciferase)
Type: cell-based
Details: Homo sapiens, SK-HEP1, SK-HEP-1 cells, 24 hour incubation
Method: To identify inhibitors of YAP-TEAD interaction, 8× TEAD responsive elements driving the NanoLuc® luciferase gene were stably integrated into SK-HEP-1 cells (ECACC #: 91091816).
For the assay, cells were treated in duplicates with the test compounds in a 10-point dose, with the top concentration starting at 30 μM (final concentration in assay). After a 24 hour incubation at 37° C., 95% rH, and 5% CO2, a luciferase substrate/lysis reagent mix (NanoGlo™, Promega) was added to the cells, allowing the quantification of cellular luciferase activity.
Cell Media: The cells were cultured in the following media: MEM, +10% FBS, +1× GlutaMAX, +1 mM Sodium-Pyruvate, +100 μM Non-essential amino acids, +0.1 mg/ml Hygromycin. The media used for the assay was: MEM (w/o Phenol Red), +10% FBS, +1× GlutaMAX, +1 mM Sodium-Pyruvate, +100 μM Non-essential amino acids, +0.5% Pen/Strep
Reagents: The reagents used are listed below:
Cell culture: The cells were examined using an inverted microscope to check for health and cell density. To dissociate adherent cells, the monolayer of cells was washed once with pre-warmed PBS. After removing the PBS, 3 ml pre-warmed Accutase® was added to a F75 flask, dispersed evenly and the flask was allowed to sit in incubator for ˜4-5 minutes.
When a single cell suspension was obtained, 7 ml of prewarmed growth media was added and resuspended with the cells. The cell suspension was transferred to a sterile 15 ml conical centrifuge tube, and spun for 5 min at 300×g, RT. The supernatant was discarded and the pellet was resuspended in 10 ml of pre-warmed growth media.
The total cell count was determined, and 20 μl of the desired cell number was added to each well of a 384 well plate using a Multidrop Combi. The plates were then incubated for 24 hours at 37° C., 95% rH, and 5% CO2.
Compound treatment: 24 hours after seeding, the cells were treated with compounds.
A 1:333 dilution of compounds, diluted in DMSO, was made to get a final concentration of 0.3% DMSO per well. To transfer the compounds to the assay plate, 120 nl was shot from Labcyte low dead volume plates to the cell plates containing 20 μl media/well with the ECHO 555 liquid handling system. After treatment, the cells were fed with 20 μl fresh pre-warmed assay media using a Multidrop combi.
The assay plates were then incubated for another 24 h at 37° C., 95% rH, and 5% CO2.
Luciferase readout: 24 h after treatment, the plates were taken out of the incubator and were allowed to equilibrate to RT. 30 μl of NanoGlo® reagent was added to the plates in the dark. Plates were shaken for 20 min on a Teleshake (˜1500 rpm) in the dark. The luminescence was then measured using an EnVision microplate reader. The IC50 values were generated using Genedata Screener®.

[1] = number, or n.d. (x) = not detectable below threshold x

Row | SMILES | IC50 (group symbols) [nM] | IC50 [1] [nM]
1 | C[C@H](CO)NC(=O)c1cc2c3cn(C)nc3n(-c3ccc(SC(F)(F)F)cc3)c2s1 [Compound 84, N-[(2R)-1-hydroxypropan-2-yl]-4-methyl-7-{4-[(trifluoromethyl)sulfanyl]phenyl}-9-thia-4,5,7-triazatricyclo[6.3.0.0^2,6]undeca-1(8),2,5,10-tetraene-10-carboxamide] | 10 to 100 | 
2 | CNC(=O)c1cc2c3cn(C)nc3n(-c3ccc(C(F)(F)F)nc3)c2s1 [Compound 87, N,4-dimethyl-7-[6-(trifluoromethyl)pyridin-3-yl]-9-thia-4,5,7-triazatricyclo[6.3.0.0^2,6]undeca-1(8),2,5,10-tetraene-10-carboxamide] |  | > 30000
3 | Cn1cc2c3cc(C#N)sc3n(-c3ccc(C(F)(F)F)cc3)c2n1 [Compound 94, 4-methyl-7-[4-(trifluoromethyl)phenyl]-9-thia-4,5,7-triazatricyclo[6.3.0.0^2,6]undeca-1(8),2,5,10-tetraene-10-carbonitrile] | 100 to 10000 | 
4 | Cn1cc2c3cc(C(=O)O)sc3n(-c3ccc(S(F)(F)(F)(F)F)cc3)c2n1 [Compound 98, 4-methyl-7-[4-(pentafluoro-lambda6-sulfanyl)phenyl]-9-thia-4,5,7-triazatricyclo[6.3.0.0^2,6]undeca-1(8),2,5,10-tetraene-10-carboxylic acid] | 100 to 10000 | 
5 | Cn1nc2c3cc(C(=O)N4CC[C@H](O)C4)sc3n(-c3ccc(C(F)(F)F)cc3)c2n1 [Compound 103, (3S)-1-{4-methyl-7-[4-(trifluoromethyl)phenyl]-9-thia-3,4,5,7-tetraazatricyclo[6.3.0.0^2,6]undeca-1(8),2,5,10-tetraene-10-carbonyl}pyrrolidin-3-ol] | 100 to 10000 | 
6 | Cn1nc2c3cc(C(=O)N[C@@H](CO)c4ccccn4)sc3n(-c3ccc(C(F)(F)F)cc3)c2n1 [Compound 104, N-[(1R)-2-hydroxy-1-(pyridin-2-yl)ethyl]-4-methyl-7-[4-(trifluoromethyl)phenyl]-9-thia-3,4,5,7-tetraazatricyclo[6.3.0.0^2,6]undeca-1(8),2,5,10-tetraene-10-carboxamide] | 100 to 10000 | 
7 | C[C@H](CO)NC(=O)c1cc2c3nn(C)nc3n(-c3ccc(C(F)(F)F)cc3)c2s1 [Compound 106, N-[(2R)-1-hydroxypropan-2-yl]-4-methyl-7-[4-(trifluoromethyl)phenyl]-9-thia-3,4,5,7-tetraazatricyclo[6.3.0.0^2,6]undeca-1(8),2,5,10-tetraene-10-carboxamide] | 100 to 10000 | 
8 | Cn1nc2c3cc(C(=O)N[C@H](CO)c4ccccn4)sc3n(-c3ccc(C(F)(F)F)cc3)c2n1 [Compound 109, N-[(1S)-2-hydroxy-1-(pyridin-2-yl)ethyl]-4-methyl-7-[4-(trifluoromethyl)phenyl]-9-thia-3,4,5,7-tetraazatricyclo[6.3.0.0^2,6]undeca-1(8),2,5,10-tetraene-10-carboxamide] | 100 to 10000 | 
9 | C[C@@H](CO)NC(=O)c1cc2c3nn(C)nc3n(-c3ccc(C(F)(F)F)cc3)c2s1 [Compound 110, N-[(2S)-1-hydroxypropan-2-yl]-4-methyl-7-[4-(trifluoromethyl)phenyl]-9-thia-3,4,5,7-tetraazatricyclo[6.3.0.0^2,6]undeca-1(8),2,5,10-tetraene-10-carboxamide] |  | > 30000
10 | Cn1cc2c3cc(C(=O)NC(CO)CO)sc3n(-c3ccc(C(F)(F)F)cc3)c2n1 [Compound 112, N-(1,3-dihydroxypropan-2-yl)-4-methyl-7-[4-(trifluoromethyl)phenyl]-9-thia-4,5,7-triazatricyclo[6.3.0.0^2,6]undeca-1(8),2,5,10-tetraene-10-carboxamide] |  | > 9500
11 | Cn1cc2c3cc(C(=O)N[C@@H](CO)c4ccccn4)sc3n(-c3ccc(C(F)(F)F)cn3)c2n1 [Compound 113, N-[(1R)-2-hydroxy-1-(pyridin-2-yl)ethyl]-4-methyl-7-[5-(trifluoromethyl)pyridin-2-yl]-9-thia-4,5,7-triazatricyclo[6.3.0.0^2,6]undeca-1(8),2,5,10-tetraene-10-carboxamide] |  | > 9500
12 | CC[C@H](CO)NC(=O)c1cc2c3cn(C)nc3n(-c3ccc(C(F)(F)F)cn3)c2s1 [Compound 114, N-[(2R)-1-hydroxybutan-2-yl]-4-methyl-7-[5-(trifluoromethyl)pyridin-2-yl]-9-thia-4,5,7-triazatricyclo[6.3.0.0^2,6]undeca-1(8),2,5,10-tetraene-10-carboxamide] |  | > 3000
13 | Cn1cc2c3cc(C(=O)NCC(O)CO)sc3n(-c3ccc(C(F)(F)F)cn3)c2n1 (centres unmarked) [Compound 115, N-(2,3-dihydroxypropyl)-4-methyl-7-[5-(trifluoromethyl)pyridin-2-yl]-9-thia-4,5,7-triazatricyclo[6.3.0.0^2,6]undeca-1(8),2,5,10-tetraene-10-carboxamide] |  | > 300
14 | Cn1cc2c3cc(C(=O)O)sc3n(-c3ccc(OC(F)F)cn3)c2n1 [Compound 127, 7-[5-(difluoromethoxy)pyridin-2-yl]-4-methyl-9-thia-4,5,7-triazatricyclo[6.3.0.0^2,6]undeca-1(8),2,5,10-tetraene-10-carboxylic acid] | 10 to 100 | 

Results, then the compound that gave them:

Row | IC50 (group symbols) [nM] | IC50 [1] [nM] | SMILES
15 | 100 to 10000 |  | CC[C@H](O)CNC(=O)c1cc2c3cn(C)nc3n(-c3ccc(C(F)(F)F)cc3)c2s1 [Compound 83, N-[(2S)-2-hydroxybutyl]-4-methyl-7-[4-(trifluoromethyl)phenyl]-9-thia-4,5,7-triazatricyclo[6.3.0.0^2,6]undeca-1(8),2,5,10-tetraene-10-carboxamide]
16 | 10 to 100 |  | CNC(=O)c1cc2c3cn(C)nc3n(-c3ccc(SC(F)(F)F)cc3)c2s1 [Compound 85, N,4-dimethyl-7-{4-[(trifluoromethyl)sulfanyl]phenyl}-9-thia-4,5,7-triazatricyclo[6.3.0.0^2,6]undeca-1(8),2,5,10-tetraene-10-carboxamide]
17 |  | > 30000 | C[C@H](CO)NC(=O)c1cc2c3cn(C)nc3n(-c3ccc(C(F)(F)F)nc3)c2s1 [Compound 86, N-[(2R)-1-hydroxypropan-2-yl]-4-methyl-7-[6-(trifluoromethyl)pyridin-3-yl]-9-thia-4,5,7-triazatricyclo[6.3.0.0^2,6]undeca-1(8),2,5,10-tetraene-10-carboxamide]
18 |  | 980 | Cn1cc2c3cc(C(N)=O)sc3n(-c3ccc(C(F)(F)F)cc3)c2n1 [Compound 89, 4-methyl-7-[4-(trifluoromethyl)phenyl]-9-thia-4,5,7-triazatricyclo[6.3.0.0^2,6]undeca-1(8),2,5,10-tetraene-10-carboxamide]
19 | 100 to 10000 |  | Cn1cc2c3cc(C(=O)N[C@@H](CO)c4ccccn4)sc3n(-c3ccc(C(F)F)cc3)c2n1 [Compound 101, 7-[4-(difluoromethyl)phenyl]-N-[(1R)-2-hydroxy-1-(pyridin-2-yl)ethyl]-4-methyl-9-thia-4,5,7-triazatricyclo[6.3.0.0^2,6]undeca-1(8),2,5,10-tetraene-10-carboxamide]
20 | 100 to 10000 |  | C[C@H](CO)NC(=O)c1cc2c3cn(C)nc3n(-c3ccc(C(F)F)cc3)c2s1 [Compound 107, 7-[4-(difluoromethyl)phenyl]-N-[(2R)-1-hydroxypropan-2-yl]-4-methyl-9-thia-4,5,7-triazatricyclo[6.3.0.0^2,6]undeca-1(8),2,5,10-tetraene-10-carboxamide]
21 | > 10000 |  | Cn1nc2c3cc(C(=O)N4CC[C@@H](O)C4)sc3n(-c3ccc(C(F)(F)F)cc3)c2n1 [Compound 108, (3R)-1-{4-methyl-7-[4-(trifluoromethyl)phenyl]-9-thia-3,4,5,7-tetraazatricyclo[6.3.0.0^2,6]undeca-1(8),2,5,10-tetraene-10-carbonyl}pyrrolidin-3-ol]
22 | 100 to 10000 |  | COCC(CO)NC(=O)c1cc2c3cn(C)nc3n(-c3ccc(C(F)(F)F)cc3)c2s1 (centres unmarked) [Compound 111, N-(1-hydroxy-3-methoxypropan-2-yl)-4-methyl-7-[4-(trifluoromethyl)phenyl]-9-thia-4,5,7-triazatricyclo[6.3.0.0^2,6]undeca-1(8),2,5,10-tetraene-10-carboxamide]
23 |  | > 30000 | Cn1ccc(C(CO)NC(=O)c2cc3c4cn(C)nc4n(-c4ccc(C(F)(F)F)cn4)c3s2)n1 (centres unmarked) [Compound 116, N-[2-hydroxy-1-(1-methyl-1H-pyrazol-3-yl)ethyl]-4-methyl-7-[5-(trifluoromethyl)pyridin-2-yl]-9-thia-4,5,7-triazatricyclo[6.3.0.0^2,6]undeca-1(8),2,5,10-tetraene-10-carboxamide]
